Experiments:
Experiment in all cases: relative viability (nuclei count vs DMSO), 5 days (fraction); higher = more cells survive
Idelalisib + Lapatinib = compound: CC[C@H](Nc1ncnc2[nH]cnc12)c1nc2cccc(F)c2c(=O)n1-c1ccccc1 [Idelalisib] + CS(=O)(=O)CCNCc1ccc(-c2ccc3ncnc(Nc4ccc(OCc5cccc(F)c5)c(Cl)c4)c3c2)o1 [Lapatinib] (partner 2 µM)
Method in brief: (§1)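 Nuclei were stained with Hoechst during a one-step fixation (final 0.05% Triton X-100, 1% formaldehyde, 1 ug/ml Hoechst) carried out 5 days after dosing, then counted on 4× images. The cells, lung cancer lines in 1536-well plates, had been dosed by pin tool the day after seeding with one drug alone or a fixed anchor-drug dose plus five library-drug doses (not always all listed) in √10 steps. Relative viability is the nuclei count in treated wells divided by that in vehicle wells, and each value is the median of duplicate plates.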

Idelalisib + Decitabine = compound: CC[C@H](Nc1ncnc2[nH]cnc12)c1nc2cccc(F)c2c(=O)n1-c1ccccc1 [Idelalisib] + Nc1ncn([C@H]2C[C@H](O)[C@@H](CO)O2)c(=O)n1 [Decitabine] (partner 2 µM)
Method in brief: as §1

Pemetrexed + Trametinib = compound: Nc1nc2[nH]cc(CCc3ccc(C(=O)N[C@@H](CCC(=O)O)C(=O)O)cc3)c2c(=O)[nH]1 [Pemetrexed] + CC(=O)Nc1cccc(-n2c(=O)n(C3CC3)c(=O)c3c(Nc4ccc(I)cc4F)n(C)c(=O)c(C)c32)c1 [Trametinib] (partner 0.02 µM)
Method in brief: as §1

Pemetrexed + Crizotinib = compound: Nc1nc2[nH]cc(CCc3ccc(C(=O)N[C@@H](CCC(=O)O)C(=O)O)cc3)c2c(=O)[nH]1 [Pemetrexed] + C[C@@H](Oc1cc(-c2cnn(C3CCNCC3)c2)cnc1N)c1c(Cl)ccc(F)c1Cl [Crizotinib] (partner 1 µM)
Method in brief: as §1

Cell Line	relative viability (Idelalisib + Lapatinib; first compound 0.04 µM)	relative viability (Idelalisib + Lapatinib; first compound 0.1265 µM)	relative viability (Idelalisib + Lapatinib; first compound 0.4 µM)	relative viability (Idelalisib + Lapatinib; first compound 1.265 µM)	relative viability (Idelalisib + Lapatinib; first compound 4 µM)	relative viability (Idelalisib + Decitabine; first compound 0.04 µM)	relative viability (Idelalisib + Decitabine; first compound 0.1265 µM)	relative viability (Idelalisib + Decitabine; first compound 0.4 µM)	relative viability (Idelalisib + Decitabine; first compound 1.265 µM)	relative viability (Idelalisib + Decitabine; first compound 4 µM)	relative viability (Pemetrexed + Trametinib; first compound 0.002 µM)	relative viability (Pemetrexed + Trametinib; first compound 0.006325 µM)	relative viability (Pemetrexed + Trametinib; first compound 0.02 µM)	relative viability (Pemetrexed + Trametinib; first compound 0.06325 µM)	relative viability (Pemetrexed + Trametinib; first compound 0.2 µM)	relative viability (Pemetrexed + Crizotinib; first compound 0.002 µM)	relative viability (Pemetrexed + Crizotinib; first compound 0.006325 µM)	relative viability (Pemetrexed + Crizotinib; first compound 0.02 µM)	relative viability (Pemetrexed + Crizotinib; first compound 0.06325 µM)	relative viability (Pemetrexed + Crizotinib; first compound 0.2 µM)
HCC-366	1.01	1.02	0.999	1.03	0.987	0.348	0.395	0.309	0.372	0.299	0.39	0.311	0.406	0.341	0.302	0.49	0.404	0.701	0.586	0.476
LU99A	0.923	0.912	0.862	1.14	1.04	0.876	0.843	0.777	1.02	0.914	0.496	0.451	0.572	0.467	0.538	0.543	0.621	0.62	0.594	0.325
HOP-62	1	0.912		1.47	1.06	0.277	0.199	0.262	0.231	0.235	0.431	0.389	0.386	0.399	0.327	0.836	0.779	0.499	0.791	0.933
HCC-15	0.828	0.847	0.818	0.983	0.894	0.687	0.692	0.547	0.82	0.622	0.371	0.344	0.392	0.336	0.218	0.747	0.824	0.883	0.775	0.473
HARA	0.891	0.982	0.651	0.844	0.656	0.642	0.62		0.548	0.586	0.592	0.395	0.797	0.41	0.17	1.27	1.02	1.03	0.98	0.216
SK-MES-1	0.467	0.445	0.432	0.443	0.396	0.399	0.414	0.36	0.248	0.257	0.553	0.568	0.618	0.559	0.539	1.06	0.938	0.99	1.01	0.832
NCI-H1355	1.06	1.1	0.751	0.972	0.888	0.346	0.326	0.364	0.369	0.324	0.404	0.441	0.392	0.416	0.418	0.933	0.964	1.13	1.06	1.07
NCI-H727	0.814	1.09	0.751	1.21	0.719	1.03	0.747	0.867	0.881	0.889	0.346	0.395	0.464	0.357	0.404	0.56	0.782	0.877	0.986	0.732
NCI-H520	0.776	0.999	0.717	0.923	0.684	0.506	0.386	0.45	0.502	0.431	0.569	0.682	0.757	0.606	0.657	0.776	0.679	1.08	0.969	0.79
NCI-H838	0.994	1.12	0.707	0.938	0.767	0.467	0.44	0.478	0.563	0.464	0.555	0.53	0.664	0.393	0.169	0.83	0.814	1.03	0.935	0.415
HCC-44	1.02	1.01	1	1.07	1.14	1.07	0.927	0.978	0.98	0.91	0.946	1.05	1.14	1.09	1.04	0.758	0.775	0.84	0.847	0.574
LK-2	1.03	0.98	0.63	0.978	0.965	0.357	0.239		0.407	0.343	0.649	0.568	0.697	0.737	0.659		0.252	0.221	0.249	0.247
HCC-827	0.225	0.191	0.176	0.178	0.157	0.379	0.246	0.347	0.331	0.286	0.453	0.544	0.6	0.472	0.404	0.856	1.03	0.944	0.888	0.779
SW 1573	1.17	1.06	0.913	1.12	1.27	0.462	0.6	0.537	0.261	0.38	0.511	0.521	0.572	0.474	0.577	0.658	0.79	0.919	0.888	0.791
NCI-H2023	0.837	1.01	0.525	0.775	0.724	0.25	0.236	0.241	0.197	0.208	0.502	0.553	0.537	0.392	0.183	0.632	0.616	0.685	0.607	0.377
EPLC-272H	0.951	1.04	0.705	0.901	0.84	0.35	0.354	0.366	0.435	0.333	0.33	0.27	0.385	0.305	0.227	0.781	0.913	1.07	0.981	0.853
